Assay: xn = mol fraction of the nth substance listed
Conditions: 101 kPa, Liquid; for viscosity: Concentric cylinders viscometry; for mass density: Vibrating tube method

OCCCO [propan-1,3-diol] + c1ccncc1
Conditions	mass density, 288.15 K [kg/m3]	mass density, 293.15 K [kg/m3]	mass density, 298.15 K [kg/m3]	mass density, 303.15 K [kg/m3]	viscosity, 288.15 K [mPa·s]	viscosity, 293.15 K [mPa·s]	viscosity, 298.15 K [mPa·s]	viscosity, 303.15 K [mPa·s]
x2 = 0	1056.12	1053.02	1049.91	1046.79	66.53	51.91	41.04	32.84
x2 = 0.0999	1050.49	1047.19	1043.89	1040.57	50.57	39.57	31.39	25.21
x2 = 0.2	1044.96	1041.48	1037.98	1034.47	35.44	27.99	22.36	18.15
x2 = 0.3	1038.93	1035.25	1031.55	1027.85	23	18.46	14.91	12.34
x2 = 0.4001	1032.58	1028.71	1024.82	1020.93	14.29	11.68	9.617	8.079
x2 = 0.5	1025.96	1021.91	1017.85	1013.76	8.708	7.266	6.147	5.244
x2 = 0.5999	1018.97	1014.73	1010.48	1006.21	5.207	4.467	3.867	3.38
x2 = 0.7	1011.77	1007.35	1002.91	998.466	3.264	2.869	2.54	2.266
x2 = 0.7998	1004.3	999.687	995.061	990.425	2.111	1.897	1.715	1.557
x2 = 0.8998	996.608	991.803	986.987	982.158	1.46	1.336	1.228	1.132
